According to publication PMC10239048, “Synthesis and antioxidant, antimicrobial, and antiviral activity of some pyrazole-based heterocycles using a 2(3H)-furanone derivative” (Journal of the Iranian Chemical Society, 2023):
Values after ≈ are worked out from the molar mass of the structure shown.

Experiments:
[1] = Total antioxidant capacity (TAC), phosphomolybdenum method; settings: for Total antioxidant capacity: 500 µg/ml in methanol, 95 °C 90 min, 695 nm, means ± S.D., n = 3
[2] = test system: avian influenza HPAI-H5N1 (AIV); parameters: species or system avian influenza virus HPAI-H5N1; settings: in vivo
[3] = test system: avian influenza HPAI-H5N1 (AIV); parameters: species or system avian influenza virus HPAI-H5N1; settings: in vivo; remark: listed apart in the source
Haemophilus (Gram –ve) [4] = experiment: Agar/disk diffusion inhibition zone, Haemophilus; assay type: cell-based; settings: diffusion method
Staphylococcus aureus [5] = experiment: Agar/disk diffusion inhibition zone, Staphylococcus aureus; assay type: cell-based; settings: diffusion method
Candida albicans = experiment: Agar diffusion antifungal activity, Candida albicans; assay type: cell-based; settings: diffusion method
Haemophilus (Gram –ve) [6] = experiment: MIC measurement by serial dilution, Haemophilus; assay type: cell-based; settings: read-out: MIC Haemophilus (Gram –ve)
Staphylococcus aureus [7] = experiment: MIC measurement by serial dilution, Staphylococcus aureus; assay type: cell-based; settings: 37 °C, 24–72 h, read-out: MIC Staph (Gram + ve)
SPF chicks = experiment: Immune-boosting properties in vaccinated SPF chicks (humeral response); assay type: in vivo, chicken
[8] = test system: embryonated chicken SPF eggs; settings: in vivo

| SMILES | melting point | Antioxidant activity (in words) [1] | Total antioxidant capacity [1] | TI [2] | Antiviral activity against avian influenza virus (in words) [3] | Virus titer with compound [3] | Inhibition diameter Haemophilus (Gram –ve) (Haemophilus (Gram –ve) [4]) | Inhibition diameter Staph (Gram + ve) (Staphylococcus aureus [5]) | Candida albicans (diameter of inhibition zone) (Candida albicans) | MIC (Haemophilus (Gram –ve) [6]) | MIC (Staphylococcus aureus [7]) | Humeral response of vaccinated groups which received each tested compound separately (SPF chicks; SPF chicks, vaccine-only group 7 log2) | Immune-boosting properties (in words) (SPF chicks; antibody titer in serum of vaccinated chicks) | CC50 [8] |
| --- | --- | --- | --- | --- | --- | --- | --- | --- | --- | --- | --- | --- | --- | --- |
| Cc1ccc(C2=CC(=Cc3c(C)nn(-c4ccccc4)c3Cl)C(=O)N2Cc2ccccc2)cc1 | 152 to 154 °C | – | – | – | – | – | – | – | – | – | – | – | – | – |
| CC(=O)NN1C(=O)C(=Cc2c(C)nn(-c3ccccc3)c2Cl)C=C1c1ccc(C)cc1 [Compound 12, N-(3-((5-Chloro-3-methyl-1-phenyl-1H-pyrazol-4-yl)methylene)-2-oxo-5-(p-tolyl)-2,3-dihydro-1H-pyrrol-1-yl)acetamide] | 114 to 116 °C | Moderate antioxidant activity | 163.0 ± 1.75 mg AAE/g dry compound | – | – | – | – | – | – | – | – | – | – | – |
| Cc1ccc(C(=O)CC(=Cc2c(C)nn(-c3ccccc3)c2Cl)C(=O)NN=Cc2cn(-c3ccccc3)nc2-c2ccccc2)cc1 [Compound 16, 2-((5-Chloro-3-methyl-1-phenyl-1H-pyrazol-4-yl)methylene)-N'-((1,3-diphenyl-1H-pyrazol-4-yl)methylene)-4-oxo-4-(p-tolyl)butanehydrazide] | – | – | 205.82 ± 2.45 mg AAE/g dry compound | 83.3 | remarked antiviral activity | 10^1 | 23 mm | 22 mm | 23 mm | 6 µg/mL (≈ 9.39 µM) | 5 µg/mL | 7.2 log2 | special immune-boosting properties | 500 > µl/ egg |
